# Data as given in ChEMBL document CHEMBL5316371, “Paraconulones A-G: Eremophilane Sesquiterpenoids from the Marine-Derived Fungus Paraconiothyrium sporulosum DL-16” (J Nat Prod, 2023).
# Key:
# BV-2 = assay: Antiinflammatory activity against mouse BV-2 cells assessed as reduction in LPS-induced NO production incubated for 24 hrs by Griess reagent based assay; assay type: functional, cell-based; details: BV-2, 24 h
# [1] = Cytotoxicity against mouse BV-2 cells assessed as reduction in cell growth; assay type: toxicity, cell-based
Compound,IC50 (BV-2),CC50 [1]
C=C(C)[C@]1(O)C[C@@]2(C)C(=C[C@H]1O)C=CC(=O)[C@@H]2C,98 µM,> 50 µM
C[C@H](CO)C1=C[C@@]2(C)C(=CC1=O)C=CC(=O)[C@H]2C,40 µM,> 50 µM
CO[C@]12C=C3C=CC(=O)[C@H](C)[C@@]3(C)C[C@@]1(O)[C@H](C)CO2,4.6 µM,> 50 µM
CC(=O)OC[C@@H](C)[C@]1(O)C[C@@]2(C)C(=CC1=O)[C@@H]1[C@H](C(=O)[C@@H]2C)[C@H]2C(=O)[C@H](C)[C@@]3(C)C[C@@](O)([C@H](C)COC(C)=O)C(=O)C=C3[C@H]21,2.8 µM,> 50 µM
CO[C@]12C=C3C=C(C4=CC5=C[C@]6(OC)OC[C@@H](C)[C@]6(O)C[C@]5(C)[C@@H](C)C4=O)C(=O)[C@@H](C)[C@@]3(C)C[C@@]1(O)[C@H](C)CO2,6.9 µM,> 50 µM
CC(=O)OC[C@@H](C)[C@]1(O)C[C@@]2(C)C(=CC1=O)C=CC(=O)[C@H]2C,7.7 µM,> 50 µM
CC1=C(C)[C@]2(C=CC1=O)C[C@@]1(O)[C@H](C)CO[C@@]1(O)C2,8.1 µM,> 50 µM
C[C@H](CO)[C@@H]1C[C@@]2(C)C(=CC1=O)C=CC(=O)[C@H]2C,8.1 µM,> 50 µM
COc1cc(/C=C/C(=O)CC(=O)/C=C/c2ccc(O)c(OC)c2)ccc1O [CURCUMIN],8.6 µM,> 50 µM
CO[C@]12C=C3C=CC(=O)[C@@H](C)[C@@]3(C)C[C@@]1(O)[C@H](C)CO2 [MICROSPHAEROPSISIN],80 µM,> 50 µM
